Reference: PubChem BioAssay (NCI)
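How tested: cells in 96-well plates exposed to compound for 48 hours at five concentrations. Abbreviation: GI50, concentration required for 50% inhibition of growth. The concentration for full growth arrest is given as TGI.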

Legend:
Assay in all cases: NCI anticancer screen, dose series, 48 h
[1] = test system: BT-549 breast
[2] = test system: HT29 colon
[3] = test system: LOX IMVI melanoma
[4] = test system: SK-OV-3 ovarian
[5] = test system: SF-539 CNS
[6] = test system: SNB-19 CNS
[7] = test system: RXF 393 renal
[8] = test system: CAKI-1 renal
[9] = test system: HCC-2998 colon
[10] = test system: NCI-H522 lung
[11] = test system: SK-MEL-2 melanoma
[12] = test system: A549 NSCLC
[13] = test system: ACHN renal
[14] = test system: HL-60(TB) leukemia
[15] = test system: UO-31 renal
[16] = test system: MDA-MB-231 breast
[17] = test system: SK-MEL-5 melanoma
[18] = test system: HS 578T breast
[19] = test system: HOP-92 NSCLC
[20] = test system: UACC-257 melanoma
[21] = test system: COLO 205 colon
[22] = test system: OVCAR-8 ovarian
[23] = test system: MDA-MB-435
[24] = test system: HCT-15 colon
[25] = test system: MOLT-4 leukemia
[26] = test system: DU-145 prostate
[27] = test system: MALME-3M melanoma
[28] = test system: HCT-116 colon
[29] = test system: IGROV1 ovarian
[30] = test system: SF-268 CNS
[31] = test system: SN12C renal
[32] = test system: K-562 leukemia
[33] = test system: OVCAR-5 ovarian
[34] = test system: OVCAR-3 ovarian
[35] = test system: MCF7 breast
[36] = test system: PC-3 prostate
[37] = test system: T-47D breast
[38] = test system: RPMI-8226 leukemia
[39] = test system: OVCAR-4 ovarian
[40] = test system: 786-0 renal
[41] = test system: M14 melanoma
[42] = test system: SNB-75 CNS
[43] = test system: SW-620 colon
[44] = test system: NCI/ADR-RES ovarian
[45] = test system: SR leukemia
[46] = test system: SF-295 CNS
[47] = test system: KM12 colon
[48] = test system: SK-MEL-28 melanoma
[49] = test system: TK-10 renal
[50] = test system: HOP-62 NSCLC
[51] = test system: UACC-62 melanoma
[52] = test system: EKVX NSCLC
[53] = test system: NCI-H226 lung
[54] = test system: A498 renal
[55] = test system: U251 CNS
[56] = test system: NCI-H460 lung
[57] = test system: CCRF-CEM leukemia

CC(=O)/C=C/C1=C(c2cc3ccccc3s2)c2ccccc2CC1
GI50 [1]: 33.6 µM | TGI [1]: > 100 µM | GI50 [2]: 21 µM | TGI [2]: > 100 µM | GI50 [3]: 20.3 µM | TGI [3]: 67.3 µM | GI50 [4]: 67.9 µM | TGI [4]: > 100 µM | GI50 [5]: 27.2 µM | TGI [5]: 64.7 µM | GI50 [6]: 50.7 µM | TGI [6]: > 100 µM | GI50 [7]: 24.9 µM | TGI [7]: 57.2 µM | GI50 [8]: 51.1 µM | TGI [8]: > 100 µM | GI50 [9]: 22.7 µM | TGI [9]: 50.2 µM | GI50 [10]: 26 µM | TGI [10]: 72.2 µM | GI50 [11]: 20 µM | TGI [11]: 42.2 µM | GI50 [12]: 33 µM | TGI [12]: > 100 µM | GI50 [13]: 19.4 µM | TGI [13]: 45.5 µM | GI50 [14]: 16.4 µM | TGI [14]: 98.2 µM | GI50 [15]: 21 µM | TGI [15]: 59.4 µM | GI50 [16]: 26.2 µM | TGI [16]: 88.2 µM | GI50 [17]: 16.3 µM | TGI [17]: 35.3 µM | GI50 [18]: 52.5 µM | TGI [18]: > 100 µM | GI50 [19]: 14.8 µM | TGI [19]: 62.6 µM | GI50 [20]: 24.4 µM | TGI [20]: 59.7 µM | GI50 [21]: 29.9 µM | TGI [21]: > 100 µM | GI50 [22]: 39.4 µM | TGI [22]: > 100 µM | GI50 [23]: 23 µM | TGI [23]: 52.5 µM | GI50 [24]: 21.8 µM | TGI [24]: 67.3 µM | GI50 [25]: 13.6 µM | TGI [25]: > 100 µM | GI50 [26]: 52.8 µM | TGI [26]: > 100 µM | GI50 [27]: 26.6 µM | TGI [27]: 58.4 µM | GI50 [28]: 20.7 µM | TGI [28]: 65.1 µM | GI50 [29]: 27.4 µM | TGI [29]: > 100 µM | GI50 [30]: 27.1 µM | TGI [30]: > 100 µM | GI50 [31]: 36.5 µM | TGI [31]: > 100 µM | GI50 [32]: 15.2 µM | TGI [32]: > 100 µM | GI50 [33]: 27 µM | TGI [33]: 67.9 µM | GI50 [34]: 19.4 µM | TGI [34]: 45 µM | GI50 [35]: 5.27 µM | TGI [35]: > 100 µM | GI50 [36]: 18.4 µM | TGI [36]: > 100 µM | GI50 [37]: 8.58 µM | TGI [37]: > 100 µM | GI50 [38]: 3.86 µM | TGI [38]: 24.4 µM | GI50 [39]: 25.9 µM | TGI [39]: > 100 µM | GI50 [40]: 33.2 µM | TGI [40]: > 100 µM | GI50 [41]: 15.1 µM | TGI [41]: 31.3 µM | GI50 [42]: 29.8 µM | TGI [42]: > 100 µM | GI50 [43]: 32.6 µM | TGI [43]: > 100 µM | GI50 [44]: 30.9 µM | TGI [44]: > 100 µM | GI50 [45]: 8.59 µM | TGI [45]: > 100 µM | GI50 [46]: 37 µM | TGI [46]: > 100 µM | GI50 [47]: 18.5 µM | TGI [47]: 42.2 µM | GI50 [48]: 20.9 µM | TGI [48]: 54.1 µM | GI50 [49]: 61.1 µM | TGI [49]: > 100 µM | GI50 [50]: 36.5 µM | TGI [50]: > 100 µM | GI50 [51]: 16.7 µM | TGI [51]: 34.2 µM | GI50 [52]: 39.5 µM | TGI [52]: > 100 µM | GI50 [53]: 19.8 µM | TGI [53]: 40.8 µM | GI50 [54]: 28.9 µM | TGI [54]: 58.1 µM | GI50 [55]: 39.6 µM | TGI [55]: > 100 µM

CCCCC(=O)N/N=C/c1cc(I)cc(I)c1O
GI50 [1]: 4.48 µM | TGI [1]: 29.5 µM | GI50 [2]: 8.46 µM | TGI [2]: 29.4 µM | GI50 [3]: 2.62 µM | TGI [3]: 13.4 µM | GI50 [4]: 3.4 µM | TGI [4]: 20.7 µM | GI50 [5]: 2.99 µM | TGI [5]: 12.8 µM | GI50 [6]: 3.43 µM | TGI [6]: 35.6 µM | GI50 [7]: 5.39 µM | TGI [7]: 27.2 µM | GI50 [8]: 1.58 µM | TGI [8]: 10.5 µM | GI50 [9]: 11.1 µM | TGI [9]: > 100 µM | GI50 [10]: 2.91 µM | TGI [10]: 17.5 µM | GI50 [11]: 3.22 µM | TGI [11]: 14.4 µM | GI50 [12]: 3.63 µM | TGI [12]: 22.4 µM | GI50 [56]: 2.25 µM | TGI [56]: 15.5 µM | GI50 [13]: 2.4 µM | TGI [13]: 13.4 µM | GI50 [14]: 2.49 µM | TGI [14]: 7.27 µM | GI50 [15]: 1.28 µM | TGI [15]: 11.1 µM | GI50 [16]: 2.73 µM | TGI [16]: 29.9 µM | GI50 [17]: 3.22 µM | TGI [17]: 15.3 µM | GI50 [18]: 7.92 µM | TGI [18]: 54.4 µM | GI50 [20]: 2.56 µM | TGI [20]: 10.4 µM | GI50 [21]: 3.59 µM | TGI [21]: 26.9 µM | GI50 [22]: 2.26 µM | TGI [22]: 13.3 µM | GI50 [57]: 1.23 µM | TGI [57]: 12.5 µM | GI50 [23]: 5.54 µM | TGI [23]: 23.9 µM | GI50 [24]: 0.897 µM | TGI [24]: > 100 µM | GI50 [25]: 2.39 µM | TGI [25]: 13 µM | GI50 [26]: 4.24 µM | TGI [26]: 31 µM | GI50 [28]: 3.63 µM | TGI [28]: 21.9 µM | GI50 [29]: 2.32 µM | TGI [29]: 17.2 µM | GI50 [30]: 2.15 µM | TGI [30]: 21.6 µM | GI50 [31]: 3.77 µM | TGI [31]: 26.1 µM | GI50 [32]: 2.99 µM | TGI [32]: 15.9 µM | GI50 [33]: 12.6 µM | TGI [33]: > 100 µM | GI50 [34]: 2.9 µM | TGI [34]: 16.9 µM | GI50 [35]: 2.72 µM | TGI [35]: 14.6 µM | GI50 [36]: 3.35 µM | TGI [36]: 20.9 µM | GI50 [38]: 3.95 µM | TGI [38]: 30.1 µM | GI50 [39]: 0.918 µM | TGI [39]: 12.7 µM | GI50 [40]: 3.39 µM | TGI [40]: 20.6 µM | GI50 [41]: 2.7 µM | TGI [41]: 14.8 µM | GI50 [42]: 6.03 µM | TGI [42]: 26.5 µM | GI50 [43]: 3.91 µM | TGI [43]: > 100 µM | GI50 [44]: 2.58 µM | TGI [44]: 20.1 µM | GI50 [45]: 1.92 µM | TGI [45]: 14.3 µM | GI50 [46]: 2.45 µM | TGI [46]: 12.9 µM | GI50 [47]: 3.74 µM | TGI [47]: 53.8 µM | GI50 [48]: 2.85 µM | TGI [48]: 17.3 µM | GI50 [50]: 3.67 µM | TGI [50]: 19.8 µM | GI50 [51]: 2.24 µM | TGI [51]: 8.33 µM | GI50 [53]: 5.93 µM | TGI [53]: 36.7 µM | GI50 [54]: 13.8 µM | TGI [54]: 44.2 µM | GI50 [55]: 1.99 µM | TGI [55]: 16.1 µM
